The values that follow come from patent US20210008097A1, “Compositions Comprising Galactose-Pronged Polysaccharides” (Galectin Therapeutics, Inc., priority 2006, published 2021).

The conditions of data set [1]: after 24 hrs; cited from earlier work.
A short description of data set [2]: Liver, lung, kidney and plasma distribution of radiolabeled (tritiated) galactomannan after single intravenous injection. Format: in vivo, male NCr-nu athymic nude mice. The settings on record: for μCi of 3H-galactomannan per 1 g of kidney / μCi of 3H-galactomannan per 1 g of liver / μCi of 3H-galactomannan per 1 g of lungs / μCi of 3H-galactomannan per kidney, total / μCi of 3H-galactomannan per lungs, total / μCi of 3H-galactomannan per mL of plasma / μCi of 3H-galactomannan per liver, total: 6 or 60 mg/kg i.v., pooled; for μCi of 3H-galactomannan per liver, total: average of four animals. From the text: Twelve male NCr-nu athymic nude mice (Charles Rivers Laboratories, Raleigh, N.C.) were acclimated in the laboratory one week prior to experimentation. The animals were housed in microisolator cages, four per cage, and using a 12-hour light/dark cycle. All animals received sterilized tap water and sterile rodent food ad libitum. The animals were observed daily and clinical signs were noted. The mice were healthy and had not been previously used in other experimental procedures.
Tritiation of the galactomannan was performed as follows. 12.8 mg of the galactomannan was dissolved in 2.0 mL of water and exposed to 25 Curies of tritium gas in the presence of Pd/BaSO4 catalyst (120 mg, totally insoluble in water). After one hour the gas supply was removed, the catalyst was filtered away, and the aqueous solution of the galactomannan was evaporated to dryness repeatedly (four-fold, adding water), until no labile tritium was found. Total yield of the labeled galactomannan was 3.8 mCi, specific radioactivity was […].
All twelve mice were given a single intravenous injection of cold or tritiated galactomannan (either 6 or 60 mg/kg) on the same day. Non-labeled galactomannan was formulated in saline, and tritiated galactomannan was added to the solution so that each animal received 10 μCi of radioactivity. All dosing solutions (100 μL each) were counted in duplicate. Six mice were injected with 6 mg/kg solution, and six mice—with 60 mg/kg solution.
Two mice from each group were bled at 1, 6, and 24 hrs after injection, and plasma was prepared. Animals were then sacrificed; livers, kidneys and lungs were collected, weighed and flash-frozen for further analysis.
After weighing, livers were dissolved in 10 mL of Soluene 350 and incubated first for 4 hrs at 50° C., and at room temperature, until tissues were solubilized. One mL of the resulting solution was counted in a scintillation counter as a single sample. Based on tissue weight and the sample volume, the number of μCi of tritiated galactomannan per gram of tissue was calculated.
Kidneys were treated in the same manner, but dissolved in two mL of Soluene. After the tissue was solubilized at room temperature, 15 mL of Safety Solve scintillation fluid was added and samples were incubated overnight. Five mL of the resulting solution were diluted in 15 mL of Safety Solve and counted in a scintillation counter as a single sample. Lungs were treated in the same manner but dissolved in one mL of Soluene. Plasma samples (50 μL each) were placed direct into Safety Solve and counted as a single sample.
The statistical evaluation was based on experiments to trace and quantify the labeled galactomannan in organs/tissues (liver, kidneys, lung, and plasma). Six mice were treated with galactomannan at 60 mg/kg with each of 2 mice sacrificed at 1, 6, and 24 hours; six mice were treated with galactomannan at 6 mg/kg with each of 2 mice sacrificed at 1, 6, and 24 hours, as described above. The percentages of ^3H-galactomannan recovered per organ (μCi/gram) was used for analyses; plasma outcome (μCi/ml) was counted from the entire sample.
The assessment of radiolabel uptake was challenging with only two mice per treatment-sacrifice time combination and occasional outliers. To address the number of mice per group, pooling tests were performed for the two galactomannan treatment groups; this would potentially increase sample size per group to four. To address possible outliers, all outcomes for each individual mouse was visually compared to the other mice in the series-treatment-time combination; the four possible mice outcomes were considered in this evaluation since any sigma-based rule would have excluded none or both observations if applied separately to the two different series.
SAS (Version 6.12, Cary, N.C.) was used for all analyses. PROC ANOVA was used for pooling tests, while […] was used to estimate means and standard deviations.
Overall, the data in Table 1 are average for four animals.

Regarding `O=c1[nH]cc(F)c(=O)[nH]1` [5-fluorouracil], in data set [1], the “clearance from the kidneys, eliminated to” value is reported as 3.8%; the “clearance from the liver, eliminated to” value is reported as 1.6%; the “clearance from the lungs, eliminated to” value is given as 3.6%.
With galactomannan, in data set [2] (60 mg/kg versus 6 mg/kg (10-times higher dose)), the “increase of the amount of bound galactomannan” value is recorded as 10 fold. Moreover, in data set [2] (1 hr after injection), the “μCi of 3H-galactomannan per 1 g of kidney” value (shortened to “μCi … per 1 g of kidney”) stood at 0.302 μCi/gram; the “μCi of 3H-galactomannan per 1 g of liver” value stood at 0.219 μCi/gram; the “μCi of 3H-galactomannan per 1 g of lungs” value came out at 0.117 μCi/gram; the “μCi of 3H-galactomannan per kidney, total” value (“μCi … per kidney, total” for short) was determined as 0.120 μCi. Besides, in data set [2] (1 hr after injection), the “μCi of 3H-galactomannan per lungs, total” value came out at 0.019 μCi; the “μCi of 3H-galactomannan per mL of plasma” value is given as 0.201 μCi/ml; the “μCi of 3H-galactomannan per liver, total” value worked out at 0.262 μCi. Besides, in data set [2] (6 hr after injection), the “μCi … per 1 g of kidney” value stood at 0.131 μCi/gram; the “μCi of 3H-galactomannan per 1 g of liver” value is 0.146 μCi/gram; the “μCi of 3H-galactomannan per 1 g of lungs” value came to 0.063 μCi/gram; the “μCi … per kidney, total” value was determined as 0.060 μCi. Besides, in data set [2] (6 hr after injection), the “μCi of 3H-galactomannan per lungs, total” value was 0.012 μCi; the “μCi of 3H-galactomannan per mL of plasma” value is given as 0.095 μCi/ml; the “μCi of 3H-galactomannan per liver, total” value came out at 0.196 μCi. In addition, in data set [2] (24 hrs after injection), the “μCi … per 1 g of kidney” value is on record as 0.087 μCi/gram; the “μCi of 3H-galactomannan per 1 g of liver” value was 0.129 μCi/gram; the “μCi of 3H-galactomannan per 1 g of lungs” value came out at 0.060 μCi/gram; the “μCi … per kidney, total” value was 0.040 μCi. Besides, in data set [2] (24 hrs after injection), the “μCi of 3H-galactomannan per lungs, total” value amounted to 0.011 μCi; the “μCi of 3H-galactomannan per mL of plasma” value turned out to be 0.106 μCi/ml; the “μCi of 3H-galactomannan per liver, total” value is 0.169 μCi. Also, in data set [2] (between the 6 mg/kg and 60 mg/kg doses), the “saturation of the binding to liver, kidney, lung, and plasma” value is “did not reach saturation of the binding”. For the same compound, the “share of the radioactivity detected at one hour after injection still present” value in data set [2] (liver, at 24 hours, average) is listed as “more than 50%”. The “share of the one-hour radioactivity detected” value in data set [2] (plasma, kidneys, and lungs, at 6 hours, average) was “approximately 50%”.
